{"source": "patent US20220315895A1", "about": "“METHODS OF MAKING OLIGOPOTENT AND UNIPOTENT PRECURSORS” (Transfusion Health, LLC, priority 2019, published 2022)", "key": {"[1]": {"test_system": "CD34+ cells from cord blood", "test": "Expansion of cord blood CD34+ cells, seven-day culture (Example 35)", "assay_type": "cell-based, human", "details": "normalized fold change days 1 to 7", "description": "CD34+ cells from cord blood were purchased from STEMCELL Technologies. Primary human CD34+ cells were isolated from cord blood samples using positive immunomagnetic separation techniques. Cells were thawed and gradually brought to room temperature. Samples were washed, then placed in overnight culture in StemSpan with 100 ng/ml each of FLT3L, TPO, SCF, and TL-6. Eighteen to twenty-four hours later (day 1), cells were counted and immunophenotyped (flow cytometry on an Invitrogen Attune N×T cytometer).\nApproximately 1000 live cells were plated into each well of 96-well plates; exact cell numbers dispensed per well were quantified with flow cytometry for later calculations.\nMedia for testing compounds of Formula I was prepared using Alpha MEM without phenol red, 10% (v/v) heat inactivated fetal bovine serum. Culture conditions also included an antibiotic solution that includes penicillin, streptomycin, and amphotericin B to avoid contamination. Additional media components and concentrations used for the compounds tested are described in Table 5.\nAll incubations for this experiment took place at 3% oxygen (controlled by nitrogen) and 5% CO2. Following seven days of culture, cells from wells were collected and phenotypes were analyzed (flow cytometry on an Invitrogen Attune N×T cytometer).\nTable 6 below, summarizes the relative expansive effect of the screened compounds at the indicated concentration. The data in Table 6 is reported as the relative expansive effect. The relative expansive effect is a normalized value of the fold changes shown in each of the figures. It is calculated as shown below: […]"}, "[2]": {"test_system": "CD34+ cells isolated from donor peripheral blood", "test": "Enhancement of HSCs derived from non-mobilized peripheral blood with compounds of Formula I (Example 33)", "assay_type": "cell-based", "details": "normalized fold change days 2 to 7", "description": "CD34+ cells were isolated from donor peripheral blood. Standard buffy coat separation using ficoll paque was performed. Cells were pelleted and incubated with unlabeled CD64 antibody. Cells then underwent negative depletion using biotinylated CD2, CD3, CD4, CD5, CD8, CD11b, CD14, CD16, CD19, CD20, CD45RA, CD56, CD235 (in some examples CD15, CD25 and other lineage specific antibodies may also be used). Cells which bind these antibodies are depleted using streptavidin beads. The enriched progenitor pool then undergoes cell sorting for CD34+.\nIsolated CD34+ cells were incubated in an in vitro culture media of Alpha MEM without phenol red with 10% (v/v) heat inactivated fetal bovine serum (FBS). When testing compounds of Formula I, two internal controls were used: a positive control (+SF conditions) and a baseline control (i.e. basic conditions (“cytokines only”)). The media components and concentrations used for the compounds tested are described in [0563] Table 2. The culture also included an antibiotic solution that includes penicillin, streptomycin, and amphotericin B to avoid contamination. Controls were included because the amount of expansion in samples obtained varies from individual to individual.\nCultures were incubated at […] (controlled by nitrogen) and 5% CO2.\nSmall molecule components were added separately and fresh each time the media needs to be refreshed. Cytokines can be stored together. Media renewal should occur at least every few days.\nOn the days indicated one-half of the volume of the cell culture was removed for data analysis (flow cytometry using a BD FACS ARIA II). The culture volume was replenished with fresh media according to the conditions tested. The data reported accounts for the dilution factor introduced in this procedure.\nSeparate experiments were performed for each compound tested (Compound 1.001-1.023).\nTable 3, below, summarizes the relative expansive effect of Compound 1.001 to 1.023 (sample compounds) at the indicated concentration. The data in Table 3 is reported as the relative expansive effect. The relative expansive effect is a normalized value of the fold changes shown in each of FIG. 1-FIG. 23. It is calculated as shown below: […]"}}}
{"smiles": "CC(=O)Nc1ccc2c(c1)C(O)c1ccccc1-2", "note": "(centres unmarked) [Compound 1.029, N-(9-hydroxy-9H-fluoren-2-yl)acetamide]", "values": [{"measurement": "CD90 effect (relative expansive effect on CD34+/CD133+/CD90+ cells)", "setting": "[1]; sample compound 8 μM", "value": "++++ (2.16 ≤ x < 2.52)"}, {"measurement": "CD133 effect (relative expansive effect on CD34+/CD133+ cells)", "setting": "[1]; sample compound 8 μM", "value": "++++ (2.16 ≤ x < 2.52)"}]}
{"smiles": "CCOC1c2ccccc2-c2ccc(NC(=O)C(C)(C)C)cc21", "note": "(centres unmarked) [Compound 1.023, N-(9-ethoxy-9H-fluoren-2-yl)pivalamide]", "values": [{"measurement": "CD90 effect (relative expansive effect on CD34+/CD133+/CD90+ cells)", "setting": "[2]; sample compound 32 μM", "value": "++ (0.2 ≤ x < 0.55)"}, {"measurement": "CD133 effect (relative expansive effect on CD34+/CD133+ cells)", "setting": "[2]; sample compound 32 μM", "value": "+ (x < 0.2)"}, {"measurement": "CD90 effect (relative expansive effect on CD34+/CD133+/CD90+ cells)", "setting": "[1]; sample compound 8 μM", "value": "++ (1.44 ≤ x < 1.8)"}, {"measurement": "CD133 effect (relative expansive effect on CD34+/CD133+ cells)", "setting": "[1]; sample compound 8 μM", "value": "++ (1.44 ≤ x < 1.8)"}]}
{"smiles": "CC(C)(C)C(=O)Nc1ccc2c(c1)C(=O)c1ccccc1-2", "note": "[Compound 1.005, N-(9-oxo-9H-fluoren-2-yl)pivalamide]", "values": [{"measurement": "CD90 effect (relative expansive effect on CD34+/CD133+/CD90+ cells)", "setting": "[2]; sample compound 0.125 μM", "value": "+++ (0.55 ≤ x < 0.9)"}, {"measurement": "CD133 effect (relative expansive effect on CD34+/CD133+ cells)", "setting": "[2]; sample compound 0.125 μM", "value": "++ (0.2 ≤ x < 0.55)"}, {"measurement": "CD90 effect (relative expansive effect on CD34+/CD133+/CD90+ cells)", "setting": "[1]; sample compound 0.5 μM", "value": "++ (1.44 ≤ x < 1.8)"}, {"measurement": "CD133 effect (relative expansive effect on CD34+/CD133+ cells)", "setting": "[1]; sample compound 0.5 μM", "value": "++ (1.44 ≤ x < 1.8)"}]}
{"smiles": "CC(=O)Oc1ccc2c(c1)C(=O)c1cc(OC(C)=O)ccc1-2", "note": "[Compound 1.027, 9-oxo-9H-fluorene-2,7-diyl diacetate]", "values": [{"measurement": "CD90 effect (relative expansive effect on CD34+/CD133+/CD90+ cells)", "setting": "[1]; sample compound 2 μM", "value": "++ (1.44 ≤ x < 1.8)"}, {"measurement": "CD133 effect (relative expansive effect on CD34+/CD133+ cells)", "setting": "[1]; sample compound 2 μM", "value": "++ (1.44 ≤ x < 1.8)"}]}
{"smiles": "O=C1c2ccccc2-c2ccccc21", "note": "[Compound 1.037]", "values": [{"measurement": "CD90 effect (relative expansive effect on CD34+/CD133+/CD90+ cells)", "setting": "[1]; sample compound 10 μM", "value": "++ (1.44 ≤ x < 1.8)"}, {"measurement": "CD133 effect (relative expansive effect on CD34+/CD133+ cells)", "setting": "[1]; sample compound 10 μM", "value": "+ (x < 1.44)"}]}
{"smiles": "CC(C)(C)C(=O)Nc1ccc2c(c1)/C(=N\\O)c1ccccc1-2", "note": "[Compound 1.028, N-(9-(hydroxyimino)-9H-fluoren-2-yl)pivalamide]", "values": [{"measurement": "CD90 effect (relative expansive effect on CD34+/CD133+/CD90+ cells)", "setting": "[1]; sample compound 2 μM", "value": "+++ (1.8 ≤ x < 2.16)"}, {"measurement": "CD133 effect (relative expansive effect on CD34+/CD133+ cells)", "setting": "[1]; sample compound 2 μM", "value": "+++ (1.8 ≤ x < 2.16)"}]}
{"smiles": "CNc1ccc2c(c1)C(O)c1ccccc1-2", "note": "(centres unmarked) [Compound 1.018, 2-(methylamino)-9H-fluoren-9-ol]", "values": [{"measurement": "CD90 effect (relative expansive effect on CD34+/CD133+/CD90+ cells)", "setting": "[2]; sample compound 4 μM", "value": "++ (0.2 ≤ x < 0.55)"}, {"measurement": "CD133 effect (relative expansive effect on CD34+/CD133+ cells)", "setting": "[2]; sample compound 4 μM", "value": "+ (x < 0.2)"}]}
{"smiles": "O=C(Nc1ccc2c(c1)C(O)c1ccccc1-2)C(Cl)(Cl)Cl", "note": "(centres unmarked) [Compound 1.034, 2,2,2-trichloro-N-(9-hydroxy-9H-fluoren-2-yl)acetamide]", "values": [{"measurement": "CD90 effect (relative expansive effect on CD34+/CD133+/CD90+ cells)", "setting": "[1]; sample compound 10 μM", "value": "+++++ (2.52 ≤ x)"}, {"measurement": "CD133 effect (relative expansive effect on CD34+/CD133+ cells)", "setting": "[1]; sample compound 10 μM", "value": "+++++ (2.52 ≤ x)"}]}
{"smiles": "NC(=O)Nc1ccc2c(c1)C(=O)c1cc(NC(N)=O)ccc1-2", "note": "[Compound 1.011, 1,1′-(9-oxo-9H-fluorene-2,7-diyl)diurea]", "values": [{"measurement": "CD90 effect (relative expansive effect on CD34+/CD133+/CD90+ cells)", "setting": "[2]; sample compound 0.125 μM", "value": "++ (0.2 ≤ x < 0.55)"}, {"measurement": "CD133 effect (relative expansive effect on CD34+/CD133+ cells)", "setting": "[2]; sample compound 0.125 μM", "value": "+ (x < 0.2)"}]}
{"smiles": "CC(C)(C)C(=O)Nc1ccc2c(c1)C(=O)C1CCCCC21", "note": "(centres unmarked) [Compound 1.002, N-(9-oxo-2,3,4,4a,9,9a-hexahydro-1H-fluoren-7-yl)pivalamide]", "values": [{"measurement": "CD90 effect (relative expansive effect on CD34+/CD133+/CD90+ cells)", "setting": "[2]; sample compound 16 μM", "value": "++ (0.2 ≤ x < 0.55)"}, {"measurement": "CD133 effect (relative expansive effect on CD34+/CD133+ cells)", "setting": "[2]; sample compound 16 μM", "value": "+ (x < 0.2)"}]}
{"smiles": "CC(C)(C)C(=O)Nc1ccc2c(c1)/C(=N/O)c1ccccc1-2", "note": "[Compound 1.013, N-(9-(hydroxyimino)-9H-fluoren-2-yl)pivalamide]", "values": [{"measurement": "CD90 effect (relative expansive effect on CD34+/CD133+/CD90+ cells)", "setting": "[2]; sample compound 4 μM", "value": "+++ (0.55 ≤ x < 0.9)"}, {"measurement": "CD133 effect (relative expansive effect on CD34+/CD133+ cells)", "setting": "[2]; sample compound 4 μM", "value": "+++ (0.55 ≤ x < 0.9)"}, {"measurement": "CD90 effect (relative expansive effect on CD34+/CD133+/CD90+ cells)", "setting": "[1]; sample compound 2 μM", "value": "+++++ (2.52 ≤ x)"}, {"measurement": "CD133 effect (relative expansive effect on CD34+/CD133+ cells)", "setting": "[1]; sample compound 2 μM", "value": "++++ (2.16 ≤ x < 2.52)"}]}
{"smiles": "Nc1ccc2c(c1)C(=O)c1ccccc1-2", "note": "[Compound 1.035]", "values": [{"measurement": "CD90 effect (relative expansive effect on CD34+/CD133+/CD90+ cells)", "setting": "[1]; sample compound 10 μM", "value": "+++ (1.8 ≤ x < 2.16)"}, {"measurement": "CD133 effect (relative expansive effect on CD34+/CD133+ cells)", "setting": "[1]; sample compound 10 μM", "value": "+++ (1.8 ≤ x < 2.16)"}]}
{"smiles": "CC(C)(C)OC(=O)Nc1ccc2c(c1)C(=O)c1ccccc1-2", "note": "[Compound 1.003, tert-butyl (9-oxo-9H-fluoren-2-yl)carbamate]", "values": [{"measurement": "CD90 effect (relative expansive effect on CD34+/CD133+/CD90+ cells)", "setting": "[2]; sample compound 0.5 μM", "value": "++ (0.2 ≤ x < 0.55)"}, {"measurement": "CD133 effect (relative expansive effect on CD34+/CD133+ cells)", "setting": "[2]; sample compound 0.5 μM", "value": "++ (0.2 ≤ x < 0.55)"}]}
